According to patent EP4461287A1, “SKIN CARE COSMETIC COMPOSITION” (Creaciones Aromáticas Industriales, S.A., priority 2023, dated 2024):

Key:
[1] = Cutaneous penetration by Franz cell diffusion, HPLC quantification in the receptor solution; format: in vitro ADME; conditions: 20 h, pig skin, 32°C, receptor PBS pH 7.4, 25 µl applied
Protocol: Cutaneous penetration of free acetylhexapeptide-8 and encapsulated acetylhexapeptide-8 (nanocapsule of the present invention) was determined by means Franz cells diffusion. The pig skin samples were used to carry out the experiment, cut into circles 2.5 cm in diameter. The skin was assembled on the receptor compartment of a Franz diffusion cell system with the stratum corneum facing up towards the donor compartment. As a solution for the receptor, 18 ml of phosphate buffered saline (PBS) pH 7.4 stirred by a magnetic rod at 700 rpm were utilized. A 25 µl aliquot of each of the assay formulations was applied on the pig skin. The Franz diffusion cells were kept at 32°C, and after 20 h of incubation, the receptor solution was analyzed by HPLC (I=220 nm) to quantify the amount of acetylhexapeptide-8 was penetrated the skin. Triplicates of the assay were done.
HPLC analysis was performed utilizing a Waters 996 instrument with diode array detector equipped with Waters 2695 separations module and Millenium software; a C18 4.6x150 mm 5 µm reversed phase column by Waters was used. […]
The quantification of acetylhexapeptide-8 in the fluid (PBS) of the receptor chamber was evaluated through HPLC at 20 hours after application of 25 µL of the two solutions on the pig skin.

chromaffin cells = experiment: Inhibition of Ca2+-induced catecholamine ([3H]noradrenaline) release in digitonin-permeabilized chromaffin cells; format: cell-based, bovine
Protocol: Chromaffin cell cultures were prepared from bovine adrenal glands by collagenase digestion and then separated from debris and erythrocytes by centrifugation. Briefly, the cells were maintained in monolayer cultures and used between the third and sixth day after plating. All the experiments were carried out at 37°C. Secreted neurotransmitter [^3H]noradrenaline was determined in cells permeabilized with digitonin. Neurotransmitter (catecholamines) release was stimulated by addition of 10 µM) Ca^2+.
To evaluate the enhancement of this activity of encapsulated Acetylhexapeptide-8, the inhibitory capacity on Ca^2+-induced catecholamine release was measured in digitonin-permeabilized chromaffin cells culture.
In particular, the activity of the free peptide free (acetylhexapeptide-8), the peptide encapsulated in Policaprolactone-Chitosan (Acetylhexapeptide-8@PCL-Chi) and the peptide encapsulated with sodium hyaluronate (HA) in PCL-Chi-HA (Acetylhexapeptide-8-HA@PCL-Chi-HA) (present invention) were compared.

[2] = Moisturizing efficacy: transepidermal water loss (TEWL) study by corneometry on forearms of volunteers; format: in vivo; conditions: forearm, women 45-50 years
Protocol: The transpidermal water loss (TEWL) study by corneometry was performed to compare the moisturizing activity of the composition of the present invention and its main components.
The assay was carried out on 20 women between the ages 45 and 50 years. None of the patients had suffered or had any medical history or relevant skin pathologies.
The volunteers were divided into four groups. Daily, for 7 days, the assigned sample was applied to one of the forearms of each group (group 1 sample with free sodium hyaluronate, group 2 sample with free Acetylhexapeptide-8, group 3 sample with free sodium hyaluronate and Acetylhexapeptide-8 and group 4 sample with complete encapsulation (Acetylhexapeptide-8, sodium hyaluronate, polycaprolactone and chitosan). The opposite forearm of each volunteer was the control.
Measurements were taken 2 hours and 7 days after the first application. Epidermal capacitance was evaluated using a CM 825 Corneometer, which allows quantification of surface humidity variations. Measurements were taken in an air-conditioned room (temperature 23°C, relative humidity 34.5%). […]
This trial compared the moisturizing capacity of free HA, free Acetylhexapeptide-8, free HA+Acetylhexapeptide-8 and the composition of the present invention (Acetylhexapeptide-8-HA@PCL-Chi-HA) by measuring the skin loss of water on the forearm of the volunteers analyzed. […]

[3] = test system: women with facial wrinkles; experiment: Clinical anti-wrinkle study, preorbital area, 3D skin topography / confocal microscopy of silicone impressions; format: in vivo; conditions: O/W emulsion twice a day; for Wrinkles reduction (%) 4 wrinkles: at 4 weeks
Protocol: The clinical study was conducted on 40 women with facial wrinkles between 50 and 60 years of age. All volunteers were healthy and without any systemic or skin disease.
Wrinkles were measured using a topographic skin measurement device, a Bio 3D Structure Light Scanner technology, which performs a 3D reconstruction of the image in silicone (ANTERA 3D® and software (Miravex, Ireland).
The patients were divided into two groups, which applied the assigned O/W emulsions twice a day for two months. One group (1) applied a free Acetylhexapeptide-8 emulsion on one side of the preorbital area and an emulsion with Acetylhexapeptide-8 encapsulated in PCL and chitosan on the other side. The second group applied an O/W emulsion with free HA on one area of a preorbital area and another of the cosmetic composition of the present invention (Acetylhexapeptide-8, HA, PCL and chitosan) on the contralateral side. All participants were asked not to use any cosmetics containing ingredients that could interfere with the wrinkle status of the skin during the study period, nor were they subjected to exposure to direct sunlight.
Before the first application, at 4 and 8 weeks of use, silicone impressions were taken and processed by confocal laser scanning microscopy to evaluate the progress of wrinkles. The maximum depth values within the analysis area were taken as representative values of wrinkles, and the percentage reduction of these values before and after application were calculated as the percentage improvement of skin wrinkles.
In this study, measurements of the main roughness parameters such as mean roughness volume and area affected by roughness were obtained. The average roughness volume is the average (three-dimensional) dimension of the depression of the cutaneous microrelief measured in mm^3. The area affected by roughness is the roughness portion of the measured skin area (two-dimensional, measured in mm^2). The improvement was calculated as the percentage change between the images taken before the treatments and two months […].
Reflection mode confocal microscopy and three-dimensional analysis were used to evaluate the different parameters.
For this purpose, the 40 female volunteers were divided into two groups, and each group applied twice daily for 2 months two assigned emulsions, one to each eye in the same preorbital area. Before treatment, at 4 and 8 weeks, the decrease in wrinkles was quantified by 3D images analyzed by confocal microscopy.

- % Penetration [1]: 14%
Substance: Acetylhexapeptide-8 [Free Acetylhexapeptide-8]
- decrease in total catecholamine exocytosis / inhibition of the release of neurotransmitters (chromaffin cells; Ca2+-induced release, versus control): 20%
- Cathecolamine release (%) (chromaffin cells; stimulated with 10 µM Ca2+, 37°C, control = 100): 80%
- Tewl After 2 hours ([2]; 2 hours after first application, control 16): 15.8 g/m^2h
- Tewl After 7 days ([2]; after 7 days of daily application, control 17): 16.5 g/m^2h
- Wrinkles reduction (%) 4 wrinkles [3]: 20.5%
- Wrinkles reduction (%) 4 wrinkles ([3]; listed as free Acetylhexapeptide-8): 20%
- Wrinkles reduction (%) 8 wrinkles ([3]; at 8 weeks (end of treatment)): 30%
- Decrease area affected by roughness (%) ([3]; at 8 weeks): 31.2%
- Roughness volume decrease (%) ([3]; at 8 weeks): 35%
